Results from patent US8791132B2, “Compounds and methods for treatment of hypertension” (Medivation Technologies, Inc., priority 2011, dated 2014).
Read-outs that look alike come from different tables or passages of the source.

How the values were obtained:
[1] = target: T1, human recombinant adrenergic α2B receptor (Homo sapiens, UniProt P18089); assay: Radioligand binding, adrenergic α2B ([3H]Rauwolscine); conditions: [3H]Rauwolscine; for Percentage inhibition of ligand binding, Adrenergic α2B: 0.03 µM
T1 construct: expressed in transfected cells; host or cells: CHO-K1
T1 sequence (P18089 1-450): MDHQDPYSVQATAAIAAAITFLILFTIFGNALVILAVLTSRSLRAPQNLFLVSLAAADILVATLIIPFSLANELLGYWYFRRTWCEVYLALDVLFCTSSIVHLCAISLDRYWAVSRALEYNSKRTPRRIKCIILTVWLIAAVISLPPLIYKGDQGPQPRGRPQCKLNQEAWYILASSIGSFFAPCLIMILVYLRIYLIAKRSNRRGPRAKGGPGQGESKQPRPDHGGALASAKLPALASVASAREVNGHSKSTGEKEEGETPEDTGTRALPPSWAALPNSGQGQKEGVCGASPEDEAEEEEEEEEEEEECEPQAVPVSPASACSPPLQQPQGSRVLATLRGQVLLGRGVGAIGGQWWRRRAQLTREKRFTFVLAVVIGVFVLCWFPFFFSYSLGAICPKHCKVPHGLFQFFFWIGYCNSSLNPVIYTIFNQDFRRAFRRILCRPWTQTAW
How it was run: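 Receptor expressed in CHO-K1 cells, assayed in 50 mM Tris-HCl pH 7.4 with 12.5 mM MgCl2, 1 mM EDTA and 0.2% BSA. Compounds were incubated with 2.5 nM [3H]Rauwolscine for 60 min at 25° C; 10 μM Prazosin defined non-specific binding. Filter counting gave percent inhibition of specific binding.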

[2] = target: T2, human recombinant adrenergic α2A receptor (Homo sapiens, UniProt P08913); assay: Radioligand binding, adrenergic α2A ([3H]MK-912); conditions: [3H]MK-912; for Percentage inhibition of ligand binding, Adrenergic α2A: 0.1 µM
T2 construct: expressed in transfected cells; host or cells: insect Sf9 cells
T2 sequence (P08913 1-465): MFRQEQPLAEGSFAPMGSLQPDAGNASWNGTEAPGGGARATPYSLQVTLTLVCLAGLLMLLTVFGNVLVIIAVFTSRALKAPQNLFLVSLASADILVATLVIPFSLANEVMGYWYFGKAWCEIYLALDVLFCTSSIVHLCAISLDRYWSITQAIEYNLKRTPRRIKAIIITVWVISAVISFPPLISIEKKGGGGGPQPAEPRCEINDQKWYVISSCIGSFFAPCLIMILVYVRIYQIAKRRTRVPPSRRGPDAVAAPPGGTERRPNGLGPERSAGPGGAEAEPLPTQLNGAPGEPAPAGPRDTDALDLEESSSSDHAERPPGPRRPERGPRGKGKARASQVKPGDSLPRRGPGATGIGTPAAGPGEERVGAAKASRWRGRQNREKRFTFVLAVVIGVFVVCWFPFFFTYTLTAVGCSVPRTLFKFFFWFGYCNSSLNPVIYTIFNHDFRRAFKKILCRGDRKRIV
How it was run: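 Receptor expressed in Sf9 cells, in 50 mM Tris-HCl pH 7.4, 12.5 mM MgCl2, 2 mM EDTA; compounds incubated with 1 nM [3H]MK-912 for 60 min at 25 °C.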

[3] = target: T3, rat adrenergic α1B receptor (Rattus norvegicus, UniProt P15823); assay: Radioligand binding, adrenergic α1B ([3H]Prazosin); conditions: [3H]Prazosin
T3 construct: rat adrenergic α1B receptor obtained from Wistar Rat liver; from tissue; host or cells: Wistar rat liver
T3 sequence (P15823 1-515): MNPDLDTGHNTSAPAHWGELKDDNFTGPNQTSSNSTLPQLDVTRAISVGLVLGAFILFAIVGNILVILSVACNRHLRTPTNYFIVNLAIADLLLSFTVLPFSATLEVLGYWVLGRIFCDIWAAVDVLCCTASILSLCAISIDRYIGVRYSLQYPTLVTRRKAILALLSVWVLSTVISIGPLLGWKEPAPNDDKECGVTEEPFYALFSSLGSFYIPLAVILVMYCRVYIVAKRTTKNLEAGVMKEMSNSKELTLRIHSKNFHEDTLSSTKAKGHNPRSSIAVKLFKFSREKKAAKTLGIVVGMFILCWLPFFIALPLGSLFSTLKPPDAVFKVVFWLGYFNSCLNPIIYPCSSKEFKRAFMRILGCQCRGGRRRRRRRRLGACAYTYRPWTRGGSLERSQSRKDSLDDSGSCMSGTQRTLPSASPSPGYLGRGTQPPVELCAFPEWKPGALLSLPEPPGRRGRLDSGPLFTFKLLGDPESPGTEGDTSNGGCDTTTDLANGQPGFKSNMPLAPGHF
How it was run: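 Rat α1B receptor from Wistar rat liver was incubated with 0.25 nM [3H]prazosin for 60 min at 25 °C in 50 mM Tris-HCl, pH 7.4, 0.5 mM EDTA. Non-specific binding was defined with 10 μM phentolamine. Bound radioligand was measured by filtration and counting, reported as percent inhibition of specific binding.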

[4] = read-out: Percentage inhibition of ligand binding, Adrenergic α2B (0.03 μM), compound at 0.03 μM, repeat datapoints each shown
[5] = read-out: Percentage inhibition of ligand binding, Adrenergic α2A (0.1 μM), compound at 0.1 μM, repeat datapoints each shown
[6] = read-out: Percentage inhibition of ligand binding, Adrenergic α1B (0.1 μM), compound at 0.1 μM, repeat datapoints each shown
[7] = compound at 0.03 μM, repeat assays, each datapoint shown, read-out: Percentage inhibition of ligand binding, Adrenergic α2B
[8] = compound at 0.1 μM, repeat assays, each datapoint shown, read-out: Percentage inhibition of ligand binding, Adrenergic α1B
[9] = compound at 0.03 μM, repeat assays, each datapoint shown
[10] = compound at 0.1 μM, repeat assays, each datapoint shown

| inhibition at 0.03 µM [1, 4] | inhibition at 0.1 µM [2, 5] | inhibition at 0.1 µM [3, 6] | inhibition at 0.1 µM [3, 8] | Percentage inhibition of ligand binding, Adrenergic α2A [2, 10] | SMILES | also measured |
| --- | --- | --- | --- | --- | --- | --- |
| 11% | 10% | 3% | – | – | Cc1ccc2c(c1)c1c(n2CC(C(=O)O)c2ccncc2)CCN(C)C1 (stereo not drawn) [II-262, 3-(2,8-dimethyl-3,4-dihydro-1H-pyrido[4,3-b]indol-5(2H)-yl)-2-(pyridin-4-yl)propanoic acid] | – |
| 10% | 10% | 2% | – | – | Cc1ccc2c(c1)c1c(n2CC(C(N)=O)c2ccncc2)CCN(C)C1 (stereo not drawn) [II-263] | – |
| 61% | 2% | 49% | – | – | Cc1cnc2c(c1)c1c(n2CC(N=[N+]=[N-])c2ccncc2)CCN(C)C1 (stereo not drawn) [V-2, 9-(2-azido-2-(pyridin-4-yl)ethyl)-3,6-dimethyl-6,7,8,9-tetrahydro-5H-pyrrolo[2,3-b:4,5-c′]dipyridine] | – |
| 71% | 40% | 22% | – | – | Cc1ccc2c(c1)c1c(n2CC(C)(N=[N+]=[N-])c2cccnc2)CCN(C)C1 (stereo not drawn) [V-3, 5-(2-azido-2-(pyridin-3-yl)propyl)-2,8-dimethyl-2,3,4,5-tetrahydro-1H-pyrido[4,3-b]indole] | – |
| 20% | 7% | 4% | – | – | Cc1ccc2c(c1)c1c(n2CC(OCC(=O)O)c2ccncc2)CCN2CCCC12 (stereo not drawn) [V-15, 2-(2-(10-methyl-2,3,5,6-tetrahydro-1H-indolizino[7,8-b]indol-7(11cH)-yl)-1-(pyridin-4-yl)ethoxy)acetic acid] | – |
| 90% | 18% | 28% | – | – | Cc1ccc2c(c1)c1c(n2CC(N=[N+]=[N-])c2ccc(C(N)=O)nc2)CCN(C)C1 (stereo not drawn) [V-22, 5-[1-azido-2-(2,8-dimethyl-1,2,3,4-tetrahydro-pyrido[4,3-b]indol-5-yl)-ethyl]-pyridine-2-carboxylic acid amide] | – |
| 105% | 109% | 94% | – | – | Cc1ccc2c(c1)c1c(n2CC(N=[N+]=[N-])c2ccc(F)cc2)CCN2CCCC12 (stereo not drawn) [V-23, 7-(2-azido-2-(4-fluorophenyl)ethyl)-10-methyl-2,3,5,6,7,11c-hexahydro-1H-indolizino[7,8-b]indole] | – |
| – | – | – | 8% | – | CN1CCc2c(c3cc(C(F)(F)F)ccc3n2CC(O)c2ccncc2)C1 (stereo not drawn) [compound 6, 2-(2-methyl-8-(trifluoromethyl)-3,4-dihydro-1H-pyrido[4,3-b]indol-5(2H)-yl)-1-(pyridin-4-yl)ethanol] | inhibition at 0.03 µM [1, 7]: 62%; inhibition at 0.1 µM ([2]; compound at 0.1 μM, repeat assays, each datapoint shown, read-out: Percentage inhibition of ligand binding, Adrenergic α2A): 2% |
| – | – | – | – | −4% | Cc1ccc2c(c1)c1c(n2CC(O)c2cccnc2)CCNC1 (stereo not drawn) [compound 9, 2-(8-methyl-1,2,3,4-tetrahydro-pyrido[4,3-b]indol-5-yl)-1-pyridin-3-yl-ethanol] | Percentage inhibition of ligand binding, Adrenergic α2B [1, 9]: 36%; Percentage inhibition of ligand binding, Adrenergic α1B ([3]; compound at 0.1 μM, repeat assays, each datapoint shown, 0.1 µM): 5% |
| – | – | – | 83% | 18% | Cc1ccc2c(c1)c1c(n2CC(O)c2ccncc2)CCN(C)CC1 (stereo not drawn) [compound 13, 2-(3,9-dimethyl-2,3,4,5-tetrahydroazepino[4,5-b]indol-6(1H)-yl)-1-(pyridin-4-yl)ethanol] | Percentage inhibition of ligand binding, Adrenergic α2B [1, 9]: 92% |
| – | – | – | 93% | 19% | CN1CCc2c(n(CC(O)c3ccncc3)c3ccc(Cl)cc23)CC1 (stereo not drawn) [compound 15, 2-(9-chloro-3-methyl-2,3,4,5-tetrahydroazepino[4,5-b]indol-6(1H)-yl)-1-(pyridin-4-yl)ethanol] | Percentage inhibition of ligand binding, Adrenergic α2B [1, 9]: 93% |
| – | – | – | 18% | 19% | CN1Cc2c(n(CC(O)c3ccncc3)c3ncccc23)C(C)(C)C1 (stereo not drawn) [compound 17, 1-pyridin-4-yl-2-(6,8,8-trimethyl-5,6,7,8-tetrahydro-1,6,9-triaza-fluoren-9-yl)-ethanol] | inhibition at 0.03 µM [1, 7]: 37% |
